Assay results from patent US20250034168A1, “NITROGEN-CONTAINING HETEROCYCLIC DERIVATIVE PARP INHIBITOR AND USE THEREOF” (XIZANG HAISCO PHARMACEUTICAL CO., LTD., priority 2021, published 2025).
pIC50: −log10 of the molar value.

Experiments:
[1] = biological target: PARP-1 enzyme (Homo sapiens (Human), UniProt P09874); assay: PARP-1 enzyme activity test; assay type: biochemical
Experimental: PARP-1 chemical […] detection kit was purchased from BPS Bioscience. The histone solution in the kit was diluted 5× with 1×PBS, and 25 μL of the diluted histone solution was added to a microwell plate and incubated overnight at 4° C. After the incubation, the plate was washed three times with PBST (0.05% Tween-20). 100 μL of the blocking solution was added to the microwell plate and incubated at 25° C. for 90 minutes. After the incubation, the plate was washed three times with PBST. 2.5 μL of compounds at different concentrations diluted in test buffer and 12.5 μL of substrate mixed solution (1.25 μL 10×PARP test buffer; 1.25 μL 10×PARP test mixed solution; 2.5 μL Activated DNA, 7.5 μL double-distilled water) were added to the microwell plate. The PARP-1 enzyme was diluted to 2 ng/μL, 10 μL of the diluent was added to the microwell plate, and the reaction system was incubated at 25° C. for 60 minutes.
After the incubation, the plate was washed three times with PBST. Streptavidin-HRP was diluted 50× with a blocking solution, and 25 μL of the diluent was added to the microwell plate and incubated at 25° C. for 30 minutes. After the incubation, the plate was washed three times with PBST. ELISA ECL substrate A and substrate B were mixed at a ratio of 1:1 (v/v), 50 μL of the mixture was added to the microwell plate, and the chemiluminescence value was read.
The inhibition rate was calculated according to formula 1, where RLUsample was the readout of the compound well, RLUmax was the readout of the solvent control well, and RLUmin was the readout of the control well without the PARP-1 enzyme. Curve fitting was performed by four parameters (log(inhibitor) vs. response—Variable slope) using GraphPad Prism software, and the IC50 value was calculated.

[2] = tested on: MDA-MB-436 cells; assay: MDA-MB-436 cell activity test; assay type: cell-based; conditions: Homo sapiens; for pIC50: MDA-MB-436, 168 h, 7 days incubation, CellTiter-Glo; for inhibition at 10 µM: MDA-MB-436 cells, read-out: Max inh. % 10 μM
Experimental: Breast tumor cells MDA-MB-436 were purchased from ATCC, the culture medium was Leibovitz's L-15+10% FBS, and the cells were cultured in a CO2-free incubator at 37° C. On day 1, the cells in the exponential growth phase were collected, and the cell suspension was adjusted to 4000 cells/135 μL with the culture medium. 135 μL of the cell suspension was added to each well of a 96-well cell culture plate and incubated overnight. On day 2, compounds at different concentrations were added, and the plate was placed in the incubator and incubated for 7 days. After the incubation was completed, according to operation instructions for a CellTiter-Glo kit (Promega, G7573), 75 μL of CTG solution, which was already pre-melted and equilibrated to room temperature, was added to each well, and the mixture was uniformly mixed for 2 min using a microplate shaker. The plate was placed at room temperature for 10 min, and then […] were measured using an Envision2104 plate reader (PerkinElmer). The inhibition rate was calculated using formula (1), where RLUcompound was the readout of the drug treated group, RLUcontrol was the average value of the vehicle control group, and RLUblank was the average value of the cell-free well. The IC50 value was calculated using GraphPad Prism software.

Sequence of PARP-1 enzyme (P09874 whole entry): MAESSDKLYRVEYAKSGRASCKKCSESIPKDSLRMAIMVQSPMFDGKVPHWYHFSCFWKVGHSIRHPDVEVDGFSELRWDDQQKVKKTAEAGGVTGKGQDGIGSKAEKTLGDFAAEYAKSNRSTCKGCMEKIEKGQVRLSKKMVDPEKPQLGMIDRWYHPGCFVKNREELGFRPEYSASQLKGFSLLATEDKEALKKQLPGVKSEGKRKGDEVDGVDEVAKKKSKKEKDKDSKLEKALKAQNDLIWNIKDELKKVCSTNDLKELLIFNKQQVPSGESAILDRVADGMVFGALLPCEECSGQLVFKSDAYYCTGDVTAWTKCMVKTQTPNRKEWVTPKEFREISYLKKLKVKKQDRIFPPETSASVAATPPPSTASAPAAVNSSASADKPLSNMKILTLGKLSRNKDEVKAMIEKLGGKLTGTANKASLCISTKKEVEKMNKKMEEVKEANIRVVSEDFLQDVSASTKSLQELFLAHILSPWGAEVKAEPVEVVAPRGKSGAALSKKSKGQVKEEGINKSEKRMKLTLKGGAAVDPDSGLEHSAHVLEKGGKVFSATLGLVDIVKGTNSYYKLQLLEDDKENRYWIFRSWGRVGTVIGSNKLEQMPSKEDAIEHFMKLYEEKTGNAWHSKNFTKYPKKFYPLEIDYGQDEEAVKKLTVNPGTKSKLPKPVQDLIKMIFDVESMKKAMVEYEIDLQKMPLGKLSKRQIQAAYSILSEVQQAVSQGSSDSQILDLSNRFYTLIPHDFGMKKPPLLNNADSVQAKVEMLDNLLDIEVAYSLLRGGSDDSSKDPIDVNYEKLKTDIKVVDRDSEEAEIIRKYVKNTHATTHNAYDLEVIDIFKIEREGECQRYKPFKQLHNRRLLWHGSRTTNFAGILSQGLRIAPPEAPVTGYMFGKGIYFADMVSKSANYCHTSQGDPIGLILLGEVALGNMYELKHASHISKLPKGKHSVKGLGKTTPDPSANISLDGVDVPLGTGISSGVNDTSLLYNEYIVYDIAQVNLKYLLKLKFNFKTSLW

CCc1cc2ncc(CN3CC[C@@H](Nc4ccc(C(=O)NC)nc4)C3)cc2[nH]c1=O [Compound 19, (R)-5-((1-((7-ethyl-6-oxo-5,6-dihydro-1,5-naphthyridin-3-yl)methyl)pyrrolidin-3-yl)amino)-N-methylpicolinamide]
pIC50 [1]: 9.44

CCc1cc2ncc(CN3CC=C(c4cn5cc(C)nc5cn4)CC3)cc2[nH]c1=O [Compound 27, 3-ethyl-7-((4-(2-methylimidazo[1,2-a]pyrazin-6-yl)-3,6-dihydropyridin-1(2H)-yl)methyl)-1,5-naphthyridin-2(1H)-one]
pIC50 [1]: 9.39

CCc1cc2ncc(CN3CC=C(c4ccc(NC(=O)c5cnn(C)c5)nc4)CC3)cc2[nH]c1=O [Compound 30, N-(1′-((7-ethyl-6-oxo-5,6-dihydro-1,5-naphthyridin-3-yl)methyl)-1′,2′,3′,6′-tetrahydro-[3,4′-bipyridin]-6-yl)-1-methyl-1H-pyrazole-4-carboxamide]
pIC50 [2]: 9.15 | inhibition at 10 µM [2]: 91.8% | pIC50 [1]: 9.59

CCc1cc2ncc(C=C3CCN(c4ccc(C(=O)NC)nc4)CC3)cc2[nH]c1=O [Compound 28, 5-(4-((7-ethyl-6-oxo-5,6-dihydro-1,5-naphthyridin-3-yl)methylene)piperidin-1-yl)-N-methylpicolinamide]
pIC50 [1]: 9.48

CCc1cc2ncc(CN3CC=C(c4cn5cc(C(F)(F)F)nc5cn4)CC3)cc2[nH]c1=O [Compound 33, 3-ethyl-7-((4-(2-(trifluoromethyl)imidazo[1,2-a]pyrazin-6-yl)-3,6-dihydropyridin-1(2H)-yl)methyl)-1,5-naphthyridin-2(1H)-one]
pIC50 [2]: 8.72 | inhibition at 10 µM [2]: 77.6% | pIC50 [1]: 9.15

CCc1cc2ncc(C=C3CCN(c4ccc(C(=O)Nc5cnn(C)c5)nc4)CC3)cc2[nH]c1=O [Compound 32, 5-(4-((7-ethyl-6-oxo-5,6-dihydro-1,5-naphthyridin-3-yl)methylene)piperidin-1-yl)-N-(1-methyl-1H-pyrazol-4-yl)picolinamide]
pIC50 [2]: 7.86 | inhibition at 10 µM [2]: 99.1% | pIC50 [1]: 9.72

CCc1cc2ncc(CN3C4CCC3CN(c3ccc(C(=O)NC)nc3)C4)cc2[nH]c1=O [Compound 3, 5-(8-((7-ethyl-6-oxo-5,6-dihydro-1,5-naphthyridin-3-yl)methyl)-3,8-diazabicyclo[3.2.1]octan-3-yl)-N-methylpicolinamide]
pIC50 [1]: 8.80

CCc1cc2ncc(CN3CC(Nc4ccc(C(=O)NC)nc4)C3)cc2[nH]c1=O [Compound 6, 5-((1-((7-ethyl-6-oxo-5,6-dihydro-1,5-naphthyridin-3-yl)methyl)azetidin-3-yl)amino)-N-methylpicolinamide]
pIC50 [1]: 9.29

CCc1cc2ncc(CN3CC=C(c4ccc(C(=O)NC5CC5)nc4)CC3)cc2[nH]c1=O [Compound 25, N-cyclopropyl-1′-((7-ethyl-6-oxo-5,6-dihydro-1,5-naphthyridin-3-yl)methyl)-1′,2′,3′,6′-tetrahydro-[3,4′-bipyridine]-6-carboxamide]
pIC50 [1]: 9.44

CCc1cc2ncc(CN3CC4(C3)CN(c3ccc(C(=O)NC)nc3)C4)cc2[nH]c1=O [Compound 8, 5-(6-((7-ethyl-6-oxo-5,6-dihydro-1,5-naphthyridin-3-yl)methyl)-2,6-diazaspiro[3.3]heptan-2-yl)-N-methylpicolinamide]
pIC50 [1]: 9.11

CCc1cc2ncc(CN3CC=C(c4ccc(C(=O)N[C@@H]5C[C@@H]5F)nc4)CC3)cc2[nH]c1=O [Compound 26, 1′-((7-ethyl-6-oxo-5,6-dihydro-1,5-naphthyridin-3-yl)methyl)-N-((1R,2S)-2-fluorocyclopropyl)-1′,2′,3′,6′-tetrahydro-[3,4′-bipyridine]-6-carboxamide]
pIC50 [2]: 9.00 | inhibition at 10 µM [2]: 90.9% | pIC50 [1]: 9.39

CCc1cc2ncc(CN3CC4CN(c5ccc(C(=O)NC)nc5)CC4C3)cc2[nH]c1=O (stereo not drawn) [Compound 1, 5-(5-((7-ethyl-6-oxo-5,6-dihydro-1,5-naphthyridin-3-yl)methyl)hexahydropyrrolo [3,4-c]pyrrol-2(1H)-yl)-N-methylpicolinamide]
pIC50 [1]: 9.10

CCc1cc2ncc(CC3CCN(c4ccc(C(=O)NC)nc4)CC3)cc2[nH]c1=O [Compound 29, 5-(4-((7-ethyl-6-oxo-5,6-dihydro-1,5-naphthyridin-3-yl)methyl)piperidin-1-yl)-N-methylpicolinamide]
pIC50 [1]: 9.02

CCc1cc2ncc(CN3CC=C(c4ccc(C(=O)Nc5cnn(C)c5)nc4)CC3)cc2[nH]c1=O [Compound 20, 1′-((7-ethyl-6-oxo-5,6-dihydro-1,5-naphthyridin-3-yl)methyl)-N-(1-methyl-1H-pyrazol-4-yl)-1′,2′,3′,6′-tetrahydro-[3,4′-bipyridine]-6-carboxamide]
pIC50 [2]: 9.15 | inhibition at 10 µM [2]: 91.8% | pIC50 [1]: 9.59

CCc1cc2ncc(CN3CC=C(c4ccc(NC(=O)C5CC5)nc4)CC3)cc2[nH]c1=O [Compound 22, N-(1′-((7-ethyl-6-oxo-5,6-dihydro-1,5-naphthyridin-3-yl)methyl)-1′,2′,3′,6′-tetrahydro-[3,4′-bipyridin]-6-yl)cyclopropanecarboxamide]
pIC50 [2]: 8.66 | inhibition at 10 µM [2]: 89.1% | pIC50 [1]: 9.51
